From patent US10202354B2, “Therapeutic compounds and uses thereof” (GENENTECH, INC., priority 2015, dated 2019)

Molecular target: Full length KDM2B (Homo sapiens (Human), UniProt Q8NHM5)
Assay: KDM2B TR-FRET Assay for Determining Inhibitor IC50
Format: biochemical
Conditions: TR-FRET (HTRF), biotin-H3K36me2 peptide substrate
Source text: KDM2B TR-FRET Assay for Determining Inhibitor IC50
The KDM2B TR-FRET Assay described above represents an additional embodiment of the invention.

Full length KDM2B, sequence (Q8NHM5 whole entry): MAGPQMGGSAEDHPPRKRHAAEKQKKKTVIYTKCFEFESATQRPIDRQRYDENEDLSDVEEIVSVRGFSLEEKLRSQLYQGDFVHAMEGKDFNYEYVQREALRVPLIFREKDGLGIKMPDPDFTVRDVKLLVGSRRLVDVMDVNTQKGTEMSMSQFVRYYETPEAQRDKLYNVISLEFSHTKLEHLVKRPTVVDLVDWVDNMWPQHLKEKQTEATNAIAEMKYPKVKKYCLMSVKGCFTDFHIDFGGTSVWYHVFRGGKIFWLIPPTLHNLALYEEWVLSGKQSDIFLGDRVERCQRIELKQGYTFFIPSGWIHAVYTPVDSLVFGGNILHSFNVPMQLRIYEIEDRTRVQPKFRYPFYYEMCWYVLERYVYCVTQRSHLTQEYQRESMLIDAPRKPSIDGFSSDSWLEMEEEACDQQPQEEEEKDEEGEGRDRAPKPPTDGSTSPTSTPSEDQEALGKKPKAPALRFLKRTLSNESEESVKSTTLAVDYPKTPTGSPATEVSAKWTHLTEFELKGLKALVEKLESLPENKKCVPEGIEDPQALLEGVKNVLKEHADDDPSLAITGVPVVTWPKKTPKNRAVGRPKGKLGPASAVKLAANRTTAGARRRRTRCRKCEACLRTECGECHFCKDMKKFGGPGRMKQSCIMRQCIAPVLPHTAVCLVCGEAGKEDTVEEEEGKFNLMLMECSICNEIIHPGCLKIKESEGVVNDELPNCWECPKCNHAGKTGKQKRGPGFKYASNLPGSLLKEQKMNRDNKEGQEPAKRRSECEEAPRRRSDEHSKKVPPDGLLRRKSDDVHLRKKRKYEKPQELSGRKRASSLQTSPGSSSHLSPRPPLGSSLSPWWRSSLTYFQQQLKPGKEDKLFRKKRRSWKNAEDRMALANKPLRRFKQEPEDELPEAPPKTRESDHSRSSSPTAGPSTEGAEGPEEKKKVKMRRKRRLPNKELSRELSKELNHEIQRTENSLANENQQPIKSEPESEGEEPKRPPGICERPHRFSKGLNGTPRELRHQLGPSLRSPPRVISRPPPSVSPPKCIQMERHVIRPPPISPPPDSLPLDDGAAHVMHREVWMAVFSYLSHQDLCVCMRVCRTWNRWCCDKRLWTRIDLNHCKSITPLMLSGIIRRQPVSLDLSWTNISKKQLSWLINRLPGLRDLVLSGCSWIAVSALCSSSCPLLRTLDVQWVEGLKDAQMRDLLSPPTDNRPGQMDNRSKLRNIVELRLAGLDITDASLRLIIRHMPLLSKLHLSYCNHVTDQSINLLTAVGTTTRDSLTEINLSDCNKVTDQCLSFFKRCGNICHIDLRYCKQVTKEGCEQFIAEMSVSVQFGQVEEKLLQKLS

SMILES | IC50 [nM]
O=S(=O)(c1ccc(Cl)c(Cl)c1)N1CCN=C1N1CCN(C2CCC2)CC1 [Example 67, 1-cyclobutyl-4-[1-(3,4-dichlorophenyl)sulfonyl-4,5-dihydromidazol-2-yl]piperazine] | 0.136
CCN1CCN(C2=NCCN2S(=O)(=O)c2ccc(Cl)c(Cl)c2)CC1 [Example 69, 1-[1-(3,4-dichlorophenyl)sulfonyl-4,5-dihydroimidazol-2-yl]-4-ethyl-piperazine] | 11.5
CC(=O)Nc1ccc(S(=O)(=O)N2CCN=C2N2CCN(C3CCC3)CC2)cc1 [Example 70, N-[4-[[2-(4-cyclobutylpiperazin-1-yl)-4,5-dihydroimidazol-1-yl]sulfonyl]phenyl]acetamide] | 0.094
O=S(=O)(c1ccc2cc(Cl)ccc2c1)N1CCN=C1N1CCN(C2CCC2)CC1 [Example 74, 1-[1-[(6-chloro-2-naphthyl)sulfonyl]-4,5-dihydroimidazol-2-yl]-4-cyclobutyl-piperazine] | 0.041
CC(=O)Nc1ccc(S(=O)(=O)N2CCN=C2N2CCN(C3CCC3)CC2)cc1Cl [Example 81, N-[2-chloro-4-[[2-(4-cyclobutylpiperazin-1-yl)-4,5-dihydroimidazol-1-yl]sulfonyl]phenyl]acetamide] | 0.127
O=C(c1ccccc1)N1CCN=C1N1CCN(C2CCC2)CC1 [Example 82, [2-(4-cyclobutylpiperazin-1-yl)-4,5-dihydroimidazol-1-yl]-phenyl-methanone] | 7
Cc1ccccc1C(=O)N1CCN=C1N1CCN(C2CCC2)CC1 [Example 83, [2-(4-cyclobutylpiperazin-1-yl)-4,5-dihydroimidazol-1-yl]-(o-tolyl)methanone] | 3.07
Cc1ccc(C(=O)N2CCN=C2N2CCN(C3CCC3)CC2)cc1 [Example 84, [2-(4-cyclobutylpiperazin-1-yl)-4,5-dihydroimidazol-1-yl]-(p-tolyl)methanone] | 2.7
Cc1cccc(C(=O)N2CCN=C2N2CCN(C3CCC3)CC2)c1 [Example 85, [2-(4-cyclobutylpiperazin-1-yl)-4,5-dihydroimidazol-1-yl]-(m-tolyl)methanone] | 3.12
O=C(c1cccc(Cl)c1)N1CCN=C1N1CCN(C2CCC2)CC1 [Example 86, (3-chlorophenyl)-[2-(4-cyclobutylpiperazin-1-yl)-4,5-dihydroimidazol-1-yl]methanone] | 2.04
O=C(c1ccccc1Cl)N1CCN=C1N1CCN(C2CCC2)CC1 [Example 87, (2-chlorophenyl)-[2-(4-cyclobutylpiperazin-1-yl)-4,5-dihydroimidazol-1-yl]methanone] | 2.23
O=C(c1ccc(Cl)cc1)N1CCN=C1N1CCN(C2CCC2)CC1 [Example 88, (4-chlorophenyl)-[2-(4-cyclobutylpiperazin-1-yl)-4,5-dihydroimidazol-1-yl]methanone] | 2.21
COc1ccc(C(=O)N2CCN=C2N2CCN(C3CCC3)CC2)cc1 [Example 89, [2-(4-cyclobutylpiperazin-1-yl)-4,5-dihydroimidazol-1-yl]-(4-methoxyphenyl)methanone] | 4.38
COc1cccc(C(=O)N2CCN=C2N2CCN(C3CCC3)CC2)c1 [Example 90, [2-(4-cyclobutylpiperazin-1-yl)-4,5-dihydroimidazol-1-yl]-(3-methoxyphenyl)methanone] | 2.29
COc1ccccc1C(=O)N1CCN=C1N1CCN(C2CCC2)CC1 [Example 91, [2-(4-cyclobutylpiperazin-1-yl)-4,5-dihydroimidazol-1-yl]-(2-methoxyphenyl)methanone] | 11.5
CC1CCC(N2CCN(C3=NCCN3S(=O)(=O)c3ccc(C(C)C)cc3)CC2)C1 (stereo not shown) [Example 94, 1-[1-(4-isopropylphenyl)sulfonyl-4,5-dihydroimidazol-2-yl]-4-(3-methylcyclopentyl)piperazine] | 1.42

SMILES | IC50 [nM]
CCN1CCN(C2=NCCN2S(=O)(=O)c2ccc(-c3ccc(F)cc3)cc2)CC1 [Example 98, 1-ethyl-4-[1-[4-(4-fluorophenyl)phenyl]sulfonyl-4,5-dihydroimidazol-2-yl]piperazine] | 1.02
CCN1CCN(C2=NCCN2S(=O)(=O)c2cccc(OC(F)(F)F)c2)CC1 [Example 99, 1-ethyl-4-[1-[3-(trifluoromethoxy)phenyl]sulfonyl-4,5-dihydroimidazol-2-yl]piperazine] | 6.22
CCN1CCN(C2=NCCN2S(=O)(=O)c2ccc(Cl)cc2Cl)CC1 [Example 100, 1-[1-(2,4-dichlorophenyl)sulfonyl-4,5-dihydroimidazol-2-yl]-4-ethyl-piperazine] | 2.83
CCN1CCN(C2=NCCN2S(=O)(=O)c2ccc(OC(F)(F)F)cc2)CC1 [Example 102, 1-ethyl-4-[1-[4-(trifluoromethoxy)phenyl]sulfonyl-4,5-dihydroimidazol-2-yl]piperazine] | 1.66
CCN1CCN(C2=NCCN2S(=O)(=O)c2cccc(C(F)(F)F)c2)CC1 [Example 103, 1-ethyl-4-[1-[3-(trifluoromethyl)phenyl]sulfonyl-4,5-dihydroimidazol-2-yl]piperazine] | 6.99
CCN1CCN(C2=NCCN2S(=O)(=O)c2cccc(OC(F)F)c2)CC1 [Example 104, 1-[1-[3-(difluoromethoxy)phenyl]sulfonyl-4,5-dihydroimidazol-2-yl]-4-ethyl-piperazine] | 7.76
CCN1CCN(C2=NCCN2S(=O)(=O)c2ccc(OC(F)F)cc2)CC1 [Example 105, 1-[1-[4-(difluoromethoxy)phenyl]sulfonyl-4,5-dihydroimidazol-2-yl]-4-ethyl-piperazine] | 3.31
CCN1CCN(C2=NCCN2S(=O)(=O)c2cc(Cl)ccc2Cl)CC1 [Example 106, 1-[1-(2,5-dichlorophenyl)sulfonyl-4,5-dihydroimidazol-2-yl]-4-ethyl-piperazine] | 3.57
CCN1CCN(C2=NCCN2S(=O)(=O)c2ccc(C(F)(F)F)cc2)CC1 [Example 107, 1-ethyl-4-[1-[4-(trifluoromethyl)phenyl]sulfonyl-4,5-dihydroimidazol-2-yl]piperazine] | 3.92
CCN1CCN(C2=NCCN2S(=O)(=O)c2c(F)cccc2F)CC1 [Example 108, 1-[1-(2,6-difluorophenyl)sulfonyl-4,5-dihydroimidazol-2-yl]-4-ethyl-piperazine] | 12.8
CCN1CCN(C2=NCCN2S(=O)(=O)c2ccc(F)cc2F)CC1 [Example 109, 1-[1-(2,4-difluorophenyl)sulfonyl-4,5-dihydroimidazol-2-yl]-4-ethyl-piperazine] | 6.33
CCN1CCN(C2=NCCN2S(=O)(=O)c2ccc3ccccc3c2)CC1 [Example 110, 1-ethyl-4-[1-(2-naphthylsulfonyl)-4,5-dihydroimidazol-2-yl]piperazine] | 0.998
CCN1CCN(C2=NCCN2S(=O)(=O)c2ccccc2OC)CC1 [Example 111, 1-ethyl-4-[1-(2-methoxyphenyl)sulfonyl-4,5-dihydroimidazol-2-yl]piperazine] | 13.3
CCN1CCN(C2=NCCN2S(=O)(=O)c2ccccc2C#N)CC1 [Example 112, 2-[[2-(4-ethylpiperazin-1-yl)-4,5-dihydroimidazol-1-yl]sulfonyl]benzonitrile] | 9.81
CCN1CCN(C2=NCCN2S(=O)(=O)c2cccc(Cl)c2)CC1 [Example 113, 1-[1-(3-chlorophenyl)sulfonyl-4,5-dihydroimidazol-2-yl]-4-ethyl-piperazine] | 9.06
